Results as given in patent EP1161410B1, “RETINOID ANTAGONISTS AND USE THEREOF” (Basilea Pharmaceutica AG, priority 1999, dated 2000).

Tests used:
human naive T cells = test: Inhibition of differentiation of human naive T cells into T helper 2 (Th2) cells; assay type: cell-based; design: dose or concentration left out as unconfirmed; conditions: for IL-4 expressing cells, % gated cells: Th2 control 26.32; for IL-4 expressing cells, % Th2 cells: Th2 control = 100
Protocol: In vitro assay for inhibition of differentiation of human naive T cells into T helper 2 (Th2) cells by retinoid antagonists.
Naive T cells from cord blood were isolated and treated as described [Panina-Bordignon et al. J. Clin. Invest. 100. 1513-1519 (1997)]. Briefly, cord blood derived mononuclear cells were incubated with anti-CD45RA and anti-CD4 monoclonal antibodies. After a 20 minute incubation, cells were washed and incubated with goat antimouse Ig-coated magnetic beads. Positive cells were separated and seeded at 1 x 10^6 cells/ml in a 24 well plate, together with autologous adherent cells, PHA, and IL-4 in the presence or absence of Compound H or Compound B […] for 5 days. Cells were then washed and put back in culture in the presence of IL-2 (100 U/ml). After 10 days, the cells were collected and restimulated with PMA (50 ng/ml) and ionomycin (1 µg/ml) for 4 hours. Brefeldin A (10 µg/ml) was added for the last 2 hours. Then the cells were fixed with 4% paraformaldehyde and permeabilized with saponin. Fixed cells were stained with FITC-anti IFNγ and PE-anti-IL-4mAbs and subjected to cytofluorimetric analysis.

IL-12 = IL-12 production by PBMC primed with IFNγ and stimulated with SAC; assay type: cell-based, human; conditions: IFNγ+SAC alone 360
Protocol: THP-1 cells were obtained from American Tissue Culture Collection and cultured in complete medium. To assay for IL-12 production, THP-1 cells, 1.25 x 10^6 cells/ml, were stimulated with S. aureus Cowan strain (SAC) (1/1000) and human recombinant interferon-γ (huIFN-γ (1000 U/ml) [Ma et al., J. Exp. Med. 183, 147-157 (1996)]. Alternatively, 0.5 x 10^6 human peripheral blood mononuclear cells (PBMC) (1 ml culture in 48 well plates) were primed with huIFN-γ (1000 U/ml) for 16 hours at 37°C, and then stimulated with SAC (1/1000). Supernatants were collected after 48 hours and freezed at -20 °C until assayed [Panina-Bordignon et al., J. Clin. Invest. 100, 1513-1519 (1997)].
IL-12 production was measured by specific enzyme linked immuno sorbant assay (ELISA), using 20C2 antibody (rat anti human IL-12 heterodimer p40-p35), at 2.5 µg/ml in coating buffer, and peroxidase-conjugated 4D6 antibody (rat anti human IL-12) at 250 ng/ml in assay buffer as described [Zhang et al., J. Clin. Invest. 93, 1733-1739 (1994)]. Standard (recombinant human IL-12, 800 pg/ml to 6 pg/ml) and samples (100 µl) diluted in assay buffer were added to duplicate wells. Absorbance was read at 450-650 nm. The unknown IL-12 concentrations of the samples were read from the corresponding standard curve and multiplied by the corresponding dilution factor. Maximal IL-12 production varied between 200 and 400 pg/ml.
Lyophilized retinoid antagonists were diluted in DMSO under yellow light, on ice at a concentration of 2 mM. Serial dilutions (1 µM-1 pM) were prepared in complete RPMI medium. 10 µl of each dilution was added to 1 ml culture.

[1] = Clinical trial, topical treatment of precancerous lesions of the skin (multiple actinic keratoses); assay type: in vivo, human; conditions: cream 1 % twice daily
From the text: Efficacy of topical application of Compound B in the treatment of precancerous lesions of the skin (multiple actinic keratoses)
In a clinical trial, a cream containing 1 % of Compound B was applied on the lesions twice daily without occlusive dressing. […]

[2] = tested on: airway inflammatory cell accumulation; test: Murine model of allergen-induced airway inflammation: airway inflammatory cell accumulation; assay type: in vivo, C57BL/6 mice; conditions: for Cell Influx, Total leukocytes: vehicle 795000; for Cell Influx, Eosinophils: vehicle 335000; for Cell Influx, Macrophages: vehicle 443000
Protocol: Murine model of allergen-induced airway inflammation and hyperresponsiveness.
C57BL/6 mice (8-9 weeks old) are actively sensitized to ovalbumin (OA) on day 0 and on day 14 by a intraperitoneal injection of 10 µg OA + 1 mg Al(OH)3 (gel suspension) in 0.2 ml sterile saline. On day 21, the mice were challenged with 5.0 % OA aerosol for 18 minutes. The aerosol is generated by a De Vilbiss Ultra-Neb 90 ultrasonic nebulizer, the outlet of which is connected to a small plexiglass chamber containing the animals. The mice are dosed with the RXR antagonist Compound B (10 and 30 mg/kg intraperitoneally) daily for three days, 48 hours, 24 hours, and immediately prior to OA challenge. Animals are used on […].
Airway Inflammatory Cell Accumulation: On day 24, three days after the challenge with OA aerosol, animals are anesthetized with urethane (2.4 g/kg) and tracheotomized with a 23 gauge catheter. Lungs are lavaged with aliquots (2 x 1 ml) of sterile Hank's balanced salt solution without Ca^++ and Mg^++. Lavage fluid is recovered after 30 sec by gentle aspiration and pooled for each animal. Samples then are centrifuged at 2000 rpm for 15 minutes at 5 °C. Red blood cells are lysed from the resulting pellet with 0.5 ml distilled water and the cells remaining in the pellet are reconstituted with 5 ml HBSS. Samples are centrifuged a second time at 2000 rpm for 15 minutes at 5 °C. The resulting pellet is suspended in 1 ml of HBSS. Total cell number is determined from an aliquot of the cell suspension using a hemocytometer. For cytological preparations, the cells are fixed on cytocentrifuged slides stained with a modified Wright's stain. Differential counts on at least 300 cells are made using standard morphological criteria to classify cells.

[3] = retinoid antagonist (1 µg) added after 16 hours together with SAC
[4] = retinoid antagonist (1 µg) added at time 0 together with IFNγ
[5] = Patient I, both forearms, 4 months
[6] = Patient IV, face and back of both hands, 3 months

## CCCCCCCOc1cc2c(cc1/C(C)=C/c1ccc(C(=O)O)cc1)C(C)(C)CCS2(=O)=O [Compound H, p-[(E)-2-[3',4'-Dihydro-4',4'-dimethyl-7'-(beptyloxy)-2'H-1-benzothiopyran-6'-yl]propenyl]benzoic acid 1',1'-dioxide]
Human naive T cells
  IL-4 expressing cells, % gated cells: 10.8%
  IL-4 expressing cells, % Th2 cells: 41%
IL-12; [3]
  PBMC IL-12: 401 pg/mL
IL-12; [4]
  PBMC IL-12: 503 pg/mL

## CCCCOc1c(\C(C)=C/C=C/C(C)=C/C(=O)O)cc(C(C)(C)C)cc1C(C)(C)C [Compound B, (2E,4E,6Z)-7-(3,5-di-tert.butyl-2-butyloxyphenyl]-3-methyl-2,4,6-octatrienoic acid]
Human naive T cells
  IL-4 expressing cells, % gated cells: 8.5%
  IL-4 expressing cells, % Th2 cells: 32%
IL-12; [3]
  PBMC IL-12: 367 pg/mL
IL-12; [4]
  PBMC IL-12: 568 pg/mL
[1]; [5]
  Adverse Events (particularly irritation of lesions and surrounding skin): none
  Improvement: marked
[1]; Patient I, m, 53 years, both forearms, 4 months
  Reduction in Size of Lesions: 50%
[1]; Patient II, face, 6 weeks
  Adverse Events (particularly irritation of lesions and surrounding skin): none
  Improvement: slight
[1]; Patient III (person two), face, 4 months
  Reduction in Size of Lesions: 30%
[1]; Patient III, face, 4 months
  Adverse Events (particularly irritation of lesions and surrounding skin): none
  Improvement: moderate
[1]; [6]
  Adverse Events (particularly irritation of lesions and surrounding skin): none
  Improvement: moderate
[1]; Patient V, face, 2 months
  Adverse Events (particularly irritation of lesions and surrounding skin): none
  Improvement: no
[1]; Patient V, m, 74 years, face, 2 months
  Reduction in Size of Lesions: 0%
[2]; 10 mg/kg intraperitoneally
  Percent of reduction, Eosinophils: 48%
  Percent of reduction, Macrophages: 35%
  Percent of reduction, Total leukocytes: 39%
  Cell Influx, Eosinophils: 176000 cells/ml
  Cell Influx, Macrophages: 289000 cells/ml
[2]; 10 mg/kg intraperitoneally daily for three days
  Cell Influx, Total leukocytes: 488000 cells/ml
[2]; 30 mg/kg intraperitoneally
  Percent of reduction, Eosinophils: 73%
  Percent of reduction, Macrophages: 62%
  Percent of reduction, Total leukocytes: 66%
  Cell Influx, Eosinophils: 91000 cells/ml
  Cell Influx, Macrophages: 172000 cells/ml
[2]; 30 mg/kg intraperitoneally daily for three days
  Cell Influx, Total leukocytes: 271000 cells/ml
